According to PubChem BioAssay (NCI):
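Dose response: 5 concentrations. Exposure: 48 h. Format: 96-well plates. Endpoint: linear interpolation; highest concentration if not reached. Abbreviation: GI50, concentration required for 50% inhibition of growth. TGI denotes the concentration required for complete inhibition of growth.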

Legend:
Assay in all cases: NCI anticancer screen, dose series, 48 h
[1] = system: SK-MEL-5 melanoma
[2] = system: NCI/ADR-RES ovarian
[3] = system: HT29 colon
[4] = system: KM12 colon
[5] = system: EKVX NSCLC
[6] = system: UACC-257 melanoma
[7] = system: IGROV1 ovarian
[8] = system: HCT-116 colon
[9] = system: U251 CNS
[10] = system: COLO 205 colon
[11] = system: T-47D breast
[12] = system: HCC-2998 colon
[13] = system: SN12C renal
[14] = system: HS 578T breast
[15] = system: NCI-H23 lung
[16] = system: SK-MEL-28 melanoma
[17] = system: SF-295 CNS
[18] = system: A549 NSCLC
[19] = system: SK-MEL-2 melanoma
[20] = system: M14 melanoma
[21] = system: DU-145 prostate
[22] = system: TK-10 renal
[23] = system: SK-OV-3 ovarian
[24] = system: A498 renal
[25] = system: OVCAR-3 ovarian
[26] = system: OVCAR-4 ovarian
[27] = system: BT-549 breast
[28] = system: MDA-MB-435
[29] = system: MCF7 breast
[30] = system: 786-0 renal
[31] = system: OVCAR-8 ovarian
[32] = system: SNB-75 CNS
[33] = system: SF-268 CNS
[34] = system: CAKI-1 renal
[35] = system: LOX IMVI melanoma
[36] = system: RXF 393 renal
[37] = system: SW-620 colon
[38] = system: NCI-H226 lung
[39] = system: SNB-19 CNS
[40] = system: HOP-62 NSCLC
[41] = system: MDA-MB-231 breast
[42] = system: NCI-H522 lung
[43] = system: MALME-3M melanoma
[44] = system: NCI-H460 lung
[45] = system: UO-31 renal
[46] = system: UACC-62 melanoma

With N#CC1(Nc2ccc(Br)cc2)CCCC1 the GI50 [1] was 3.05 µM, the TGI [1] was greater than 100 µM and the GI50 [2] was 9.2 µM. For the same molecule, the TGI [2] was greater than 100 µM, the GI50 [3] was greater than 100 µM and the TGI [3] was greater than 100 µM. It also gave a GI50 [4] of 1.86 µM, a TGI [4] greater than 100 µM and a GI50 [5] of 7.27 µM. The TGI [5] was greater than 100 µM, the GI50 [6] was 31.4 µM and the TGI [6] was greater than 100 µM. It also gave a GI50 [7] of 75.4 µM, a TGI [7] greater than 100 µM and a GI50 [8] greater than 100 µM. The TGI [8] was greater than 100 µM, the GI50 [9] was 44.5 µM and the TGI [9] was greater than 100 µM. For the same molecule, the GI50 [10] was greater than 100 µM, the TGI [10] was greater than 100 µM and the GI50 [11] was 9.39 µM. The TGI [11] was greater than 100 µM, the GI50 [12] was 8.3 µM and the TGI [12] was greater than 100 µM. The GI50 [13] was 12.6 µM, the TGI [13] was greater than 100 µM and the GI50 [14] was greater than 100 µM. The TGI [14] was greater than 100 µM, the GI50 [15] was greater than 100 µM and the TGI [15] was greater than 100 µM. The GI50 [16] was greater than 100 µM, the TGI [16] was greater than 100 µM and the GI50 [17] was 2.3 µM. It also gave a TGI [17] greater than 100 µM, a GI50 [18] of 8.15 µM and a TGI [18] greater than 100 µM. The GI50 [19] was greater than 100 µM, the TGI [19] was greater than 100 µM and the GI50 [20] was 1.2 µM. It also gave a TGI [20] greater than 100 µM, a GI50 [21] greater than 100 µM and a TGI [21] greater than 100 µM. It also gave a GI50 [22] greater than 100 µM, a TGI [22] greater than 100 µM and a GI50 [23] greater than 100 µM. It also gave a TGI [23] greater than 100 µM, a GI50 [24] greater than 100 µM and a TGI [24] greater than 100 µM. It also gave a GI50 [25] of 96.4 µM, a TGI [25] greater than 100 µM and a GI50 [26] greater than 100 µM. The TGI [26] was greater than 100 µM, the GI50 [27] was 22.2 µM and the TGI [27] was greater than 100 µM. For the same molecule, the GI50 [28] was 3.78 µM, the TGI [28] was greater than 100 µM and the GI50 [29] was 9.98 µM. It also gave a TGI [29] greater than 100 µM, a GI50 [30] of 11.3 µM and a TGI [30] greater than 100 µM. For the same molecule, the GI50 [31] was 26.5 µM, the TGI [31] was greater than 100 µM and the GI50 [32] was greater than 100 µM. For the same molecule, the TGI [32] was greater than 100 µM, the GI50 [33] was greater than 100 µM and the TGI [33] was greater than 100 µM. The GI50 [34] was 0.529 µM, the TGI [34] was greater than 100 µM and the GI50 [35] was 0.543 µM. For the same molecule, the TGI [35] was greater than 100 µM, the GI50 [36] was greater than 100 µM and the TGI [36] was greater than 100 µM. The GI50 [37] was 3.22 µM, the TGI [37] was greater than 100 µM and the GI50 [38] was greater than 100 µM. It also gave a TGI [38] greater than 100 µM, a GI50 [39] greater than 100 µM and a TGI [39] greater than 100 µM. For the same molecule, the GI50 [40] was greater than 100 µM, the TGI [40] was greater than 100 µM and the GI50 [41] was 3.16 µM. For the same molecule, the TGI [41] was greater than 100 µM, the GI50 [42] was greater than 100 µM and the TGI [42] was greater than 100 µM. For the same molecule, the GI50 [43] was 42.6 µM, the TGI [43] was greater than 100 µM and the GI50 [44] was 1.99 µM. It also gave a TGI [44] greater than 100 µM, a GI50 [45] of 4.69 µM and a TGI [45] greater than 100 µM. The GI50 [46] was 0.427 µM and the TGI [46] was greater than 100 µM.
